The target in data set [1] is T1, human Kir2.1 (Homo sapiens, UniProt P63252).
T1 construct: expressed in transfected cells
T1 sequence (P63252 1-427): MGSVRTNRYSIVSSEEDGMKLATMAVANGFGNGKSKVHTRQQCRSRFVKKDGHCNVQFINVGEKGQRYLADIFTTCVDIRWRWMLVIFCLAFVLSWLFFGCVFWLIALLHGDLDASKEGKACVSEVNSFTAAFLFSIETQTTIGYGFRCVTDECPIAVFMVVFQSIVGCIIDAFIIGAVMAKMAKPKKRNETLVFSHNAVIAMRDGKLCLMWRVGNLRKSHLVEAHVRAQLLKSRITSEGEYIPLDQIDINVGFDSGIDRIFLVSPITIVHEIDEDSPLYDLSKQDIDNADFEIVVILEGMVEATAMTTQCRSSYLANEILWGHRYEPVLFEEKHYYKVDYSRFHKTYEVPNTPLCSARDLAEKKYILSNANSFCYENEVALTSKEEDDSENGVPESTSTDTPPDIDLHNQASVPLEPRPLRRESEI
Briefly: Kir2.1 manual patch clamp (MPC) assay. It is filed as cell-based. Conditions: pH 7.4, -120 mV, normalized to 2 mM Ba2+ block; top concentration 10 μM (ML133 30 μM, 5t 3 μM). On the procedure: Manual Patch Claim Assay Experimental Conditions
Whole-cell patch-clamp electrophysiology was used to record K ir2.1 currents from a stably transfected monoclonal T-Rex-HEK-293 cell line with a tetracycline-inducible promoter expressing human Kir2.1, as described previously1 cultured in a 5% CO2 incubator at 37°C. Kir2.1 expression was induced by overnight treatment with 1 µg/mL tetracycline. Cells were dissociated using 0.25% Trypsin-EDTA and seeded onto 12 mm circular coverslips (Electron Microscopy Sciences, PA, USA) for same-day whole-cell patch-clamp recordings. Kir2.1 currents were recorded at room temperature using an AxoPatch 200B amplifier with Clampex 10.7 software (Molecular Devices, USA). The voltage-clamp protocol consisted of a 1-s step to -120 mV from a -80 mV holding potential, followed by a 2-s ramp to +40 mV, repeated every 10 s. Data were sampled at 5 kHz and filtered at 1 kHz. Patch pipettes, pulled from 1.5 mm OD thin-walled capillaries (Warner Instruments, MA, USA) using a Sutter P-1000 puller (Sutter Instrument, CA, USA), had resistances of 2–3 MΩ when filled with intracellular solution containing (mM): 135 KCl, 10 HEPES, 1 EGTA, 2 MgCl2, 2 Na2ATP (pH 7.35, adjusted with KOH). The extracellular solution contained (mM): 135 NaCl, 5 KCl, 2 CaCl2, 1 MgCl2, 5 Glucose, 10 HEPES, 10 Sucrose (pH 7.35, adjusted with NaOH). After establishing stable baseline Kir2.1 currents, cells were perfused with compounds at concentrations of 0.03–30 µM until response saturation (within minutes).
Recordings concluded with a 2 mM Ba2+ solution to isolate Ba2+-sensitive currents, with compound responses expressed as fractions of this current. Current amplitudes at the -120 mV step were analyzed using Clampfit 11.2 (Molecular Devices). IC50 values were calculated by fitting the Hill equation to concentration-response curves (CRCs) using variable -slope nonlinear regression in GraphPad Prism 10.4 (GraphPad Software).
MPC experiments for Kir2.2 and Kir2.3 were conducted in an analogous fashion.1
For orientation: In patch-clamp work, channel activity is measured electrically.

Data set [2] addresses T1, human Kir2.1. Put plainly: Kir2.1 thallium flux assay. It counts as cell-based. Conditions: for IC50: T-REx-HEK-293 cells expressing human Kir2.1, 4PL fit, top concentration 30 μM, read-out: Thallium Flux Potency IC50; for Emax: efficacy from 4PL fit, relative to ML133, read-out: Thallium Flux Efficacy (% Inhibition). On the procedure:
Thallium Flux Assay Experimental Conditions
The Tl+ flux assays were conducted as previously described with modifications optimized for Kir2.1 cell line as described below.1
Briefly, stable T-REx-HEK-293 cells expressing human K ir2.1 were cultured in DMEM growth medium (Catalog #11965-092, Gibco, Billings, MT) containing 10% heat-inactivated FBS (Catalog #16140, Gibco), 100 U/mL PenStrep, 5 μg/mL Blasticidin S, and 250 μg/mL Hygromycin.
The day prior to the experiment, cells at ~90% confluency were resuspended in plating media, which consisted of the same components as the growth media, except that heat-inactivated FBS was replaced with dialyzed FBS (Catalog #26400, Gibco). Tetracycline was added to the plating media to achieve a final concentration of 1 μg/ml to induce hKir2.1 expression. Cells were then counted and plated at 15,000 cells/well in black-walled, amine- or PDL- coated, 384-well plates at 20 μl/well (Corning, Corning, NY). On the day of experiment, the media was removed from the cell plate and replaced with 20 μl/well of Tl+-sensitive dye loading solution containing 2.5 μg/ml Thallos-AM (Catalog #11000-050, ION Biosciences, San Marcos, TX) in assay buffer using a Multidrop Combi dispenser (Thermo Fisher Scientific, Walkham, MA). Cell plates loaded with dye solution were incubated for 1 hour at room temperature. Following incubation, the cell plate was washed with HBSS assay buffer containing 20 mM HEPES using a BioTek ELx 405 TS plate washer (Agilent, Santa Clara, CA), leaving 20 μl of assay buffer in each well. The cell plate was then transferred to a Panoptic kinetic imaging plate reader (WaveFront Biosciences, Franklin, TN) for imaging at 1 Hz, 482/35 nm excitation and 536/40 nm emission for 10 seconds. Following this, 20 μl/well of HBSS assay buffer containing test compounds at 2-fold over their final concentrations were added and imaging continued for another eight minutes, after which 10 μl/well of chloride-free Tl+ stimulus solution was added (Catalog #11000-050, ION Biosciences). The final Tl2SO4 concentration in cell plate post-Tl+ stimulus solution addition was 0.25 mM. Images were collected for an additional two minutes. A ten-point concentration series from 30 μM to 2 nM with a 1:3 dilution factor was generated using an Echo liquid handler 650 (Labcyte, San Jose, CA). Final DMSO concentration, 0.3% (v/v) in the assay was constant across all compound concentrations.
The initial slopes of the Tl+-induced fluorescence changes were fit to a four-parameter logistic equation using our in-house software Waveguide to determine potency and efficacy values. […]
Bauer, J. A.; Days, E. L.; Lindsley, C. […]

Data set [3] is described as follows: Rat PK PBL cassette (i.v.). It counts as in vivo, Sprague-Dawley rat. The settings on record: Sprague-Dawley, iv, male SD rat, 0.2 mg/kg i.v. cassette; for Kp at 0.25 h: brain and plasma, 0.25 time point (15 min post dosing), read-out: Kp (total brain to plasma ratio); for AUC / clearance / half-life / MRT / Vd: plasma, n = 1; for AUC: read-out: AUC; for clearance: read-out: CLp; for half-life: read-out: Elim. t1/2 (converted); for MRT: read-out: MRT; for Vd: read-out: Vss. An excerpt:
While ML133 has found use as a Kir2.1 tool molecule across many disease models, the in vivo PK of this and related compounds within the dibenzylamine chemotype have not previously been characterized. As a highly efficient method for profiling the PK of a compound set, we therefore examined ML133 (alongside 9 additional next-generation Kir2.1 inhibitors) in our rat PK PBL cassette dosing platform (Table ). − From this experimental setup, administration of a 4-compound bolus dose, plus a standard control, can be used to determine a variety of PK parameters in a high-throughput fashion. Specifically, Sprague–Dawley (SD) rats were given 0.2 mg/kg of each Kir2.1 inhibitor (i.v. dosing, 4 compounds +1 control, total dose 1 mg/kg) with PK measured across set time points up to 24 h. Additionally, a separate cohort of animals was utilized to assess total plasma-brain levels (PBL, ratio reported as Kp) of compound at a 0.25 time point. In this fashion, standard plasma-based PK parameters (elimination t 1/2, […] (MRT), plasma clearance (CLp), and volume of distribution (Vss)) were measured alongside a parallel assessment of total brain exposure.
PK PBL Cassette Experimental Conditions
4 compounds plus one control were formulated as a solution in ethanol, PEG400, and DMSO (1:3:6 v/v, respectively) at a concentration of 1 mg/mL and administered as a single IV dose (1 mL/kg, 0.2 mg/kg per compound, total 1 mg/kg) to male, Sprague Dawley rats (n = 1) via injection into a surgically -implanted jugular vein catheter. Blood samples were collected serially from a surgically implanted carotid artery catheter in each animal over multiple post -administration time points (0.033, 0.117, 0.25, 0.5, 1, 2, 4, 7, and 24 hours) into chilled, K 2EDTA anticoagulant - fortified tubes and immediately placed on wet ice. The blood samples were then centrifuged (1700 rcf, 5 minutes, 4 °C) to ob tain plasma samples, which were stored at -80 °C until analysis […]
For determination of the brain over plasma ratio (K p), the same cassette of compounds plus control were formulated in ethanol, PEG400, and DMSO (1:3:6 v/v, respectively) and administered as a single IV dose (1 mL/kg, 0.2 mg/kg per compound, total 1 mg/kg) to male, Sprague Dawley rats ( n = 1) via injection into a surgically-implanted jugular vein catheter. At 15 min post dosing, blood sample was collected terminally into chilled, K 2EDTA anticoagulant-fortified tube and immediately placed on wet ice. The bloo d sample was then centrifuged (1700 rcf, 5 minutes, 4 °C) to obtain plasma sample. At the same post-administration time point, whole brain sample was obtained by rapid dissection, rinsed with PBS, and immediately frozen in individual tissue collection box (dry ice). All brain and plasma samples were stored at -80 °C until […]
Samples preparation for bioanalysis
Plasma samples from the in-life phase of the study were thawed at ambient temperature (benchtop), and then aliquots (20 µL per sample) were transferred to a 96-shallow-well (V-bottom) plate. Matrix-matched quality control (QC) samples and a standard curve of each analyte (1 mg/mL DMSO stock solution) were prepared in blank rat plasma (K2EDTA-treated) via serial dilution and transferred (20 µL each) to the plate along with multiple blank plasma samples. MeCN (120 µL) containing IS (10 nM carbamazepine) was added to each well of the plate to precipitate protein. The plate was then centrifuged (4000 rcf, 5 minutes, ambient temperature), and resulting supernatants (60 µL each) were transferred to a new 96-shallow-well (V-bottom) plate containing an equal volume (60 µL per well) of water (Milli-Q purified). The plate was then sealed in preparation for LC-MS/MS analysis.
Preparation of brain samples was identical to that of plasma samples except for the following modifications. While thawing, brains were weighed (inside their collection boxes using a universal empty collection box tare weight) and then subjected to mechanical homogenization […]

With `COc1ccc(CNCc2ccc(-c3cccc(OC)c3)cc2)cc1` [Compound 9], the IC50 (usually the concentration that inhibits the measured activity by half) on human Kir2.1 [1] came to 0.21 µM; on human Kir2.1 [2], 5.4 µM.

Consider `COc1ccc(CNCc2ccc(-c3cccc(OC)c3)cc2)cc1` [Compound 13], for which the IC50 is 0.21 µM on human Kir2.1 [1] and 4.7 µM at human Kir2.1 [2].

As for `COc1ccc(CNCc2ccc(-c3cccc(C)c3)cc2)cc1` [Compound 5r], in data set [3], the Kp at 0.25 h was 2.29, the AUC (usually concentration integrated over time) was determined as 0.162 µg·h/mL, the clearance came out at 1.24 L/h/kg and the half-life is 104 min. Also, in data set [3], the MRT – broadly, a mean duration of stay, worked out from the concentration-time curve – is 78.6 min and the Vd is 1.62 L/kg. On human Kir2.1 [2], the IC50 was found to be 8.5 µM and the Emax amounted to 99%.

Consider `COc1ccc(CNCc2cncc3ccccc23)cc1` [Compound 5b], for which, in data set [3], the Kp at 0.25 h worked out at 1.05, the AUC is 0.183 µg·h/mL, the clearance was 1.09 L/h/kg and the half-life was 17.4 min. Moreover, in data set [3], the MRT is 21.6 min and the Vd came to 0.39 L/kg. At human Kir2.1 [2], the “Fold less potent than ML133 in the thallium flux assay” value is recorded as “approximately 2 fold”, the IC50 was determined as 24.8 µM and the Emax came out at 140%.

Regarding `COc1ccc(CNCc2ccc(-c3cccc(OC)c3)cc2)cc1` [Compound 11], the values for the half-inhibitory concentration (IC50) against human Kir2.1 [1] and at human Kir2.1 [2] were 0.33 µM and 4.3 µM, respectively.

The values above are taken from paper PMC12434521, “Characterization of Next-Generation Inhibitors for the Inward-Rectifier Potassium Channel Kir2.1: Discovery of VU6080824” (ACS Medicinal Chemistry Letters, 2025).
